From patent US6348445B1, “Biologically active peptides with reduced toxicity in animals and a method for preparing same” (priority 1992, dated 2002)
Read-outs that look alike come from different tables or passages of the source. *1 amine or outer side, *2 acyl side, *3 side chain or, on linkers, in order; H or OH if unused. Where a SMILES comes first, the peptide text is derived from it. The star is where a group is joined. X2 = CCCCCCCCCCCCC/C=C/[C@@H](O)[C@H](CO)N*; Ibuprofenoyl = CC(C)Cc1ccc(C(C)C(=O)*)cc1; Myristoyl = CCCCCCCCCCCCCC(=O)*; Suc = O=C(CCC(=O)[*:2])[*:1]; Heptanoyl = CCCCCCC(=O)*; Octanoyl = CCCCCCCC(=O)*; Hexanoyl = CCCCCC(=O)*

Assays:
Type in all cases: cell-based
[1] = system: P. aeruginosa strain ATCC 27853; conditions: ATCC 27853
Description: (§1) Table I, which follows, indicates the Minimal Inhibitory Concentration (MIC) in […] of various peptides against S.aureus strain ATCC 25923(S), P. aeruginosa strain ATCC 27853(P), E. coli ATCC strain 25922(E), and C. 4albicans (CA). […] The peptides are unsubstituted at the N-terminal; substituted with an acetyl group at the N-terminal, as indicated by Ac-; substituted with an octanoyl group at the N-terminal, as indicated by Oct-; substituted with spinogosine, as indicated by Sph-; substituted with a succinyl group, as indicated by Suc-; substituted with a hexanoyl group, as indicated by Hex-; substituted with a heptanoyl group, as indicated by Hep-; substituted with a valeryl group, as indicated by Val-; substituted with a myristryl group, as indicated by Myr-; or substituted with an ibuprofyl group, as indicated by Ibu-;
(§2) The procedure for the anti-bacterial assay is based upon the guidelines of the National Committee for Clinical Laboratory Standards, Document M7-T2, Volume 8, No. 8, 1988, which document is entirely incorporated herein by reference.
(§3) Stock solutions of peptides, with and without the appropriate substitutions, were prepared at a concentration of 512 μg/ml in sterile deionized distilled water and stored at −70° C.
(§4) The stock peptide solution was diluted in serial dilutions (1:2) down the wells of a microtiter plate so that the final concentrations of peptides in the wells were 0.25, 0.50, 1, 2, 4, 8, 16, 32, 64, 128 and 256 μg/ml. 1-5×10^5 CFUs/ml of either S. aureus ATCC 25923, E. coli ATCC 25922, P. aeruginosa ATCC 27853, or C. albicans, were added to the wells in full strength Mueller Hinton broth (BBL 11443) from a mid-log culture. The inoculum was standardized spectrophotometrically at 600 nm and was verified by colony counts. The plates were incubated for 16-20 hours at 37° C., and the minimal inhibitory concentration (MIC) for each peptide was determined. Minimal inhibitory concentration is defined as the lowest concentration of peptide which produces a clear well in the microtiter plate. The minimal inhibitory concentration of each of the peptides with and/or without the appropriate substitutions is given in Table I below.
(§5) The in vitro anti-microbial activities of the methane sulfonate derivatives were determined according to the methods described in Examples 1 and 2. The activities against ATCC strains of S. aureus, E. coli, P. aeruginosa, and C. albicans, and the hemolysis of red blood cells were compared to the parent compound (Table IV). The activities for Compound 843 (Oct-SEQ ID NO:143) methane sulfonate against clinical strains of P. aeruginosa isolated from cystic fibrosis patients were compared to the parent compound (Table V). The activity for Compound 469 (Oct-SEQ ID NO:27) methane sulfonate against P. gingivalis was compared to the parent compound (Table VI).

C. albicans = system: C. albicans
Description: as §1, §2, §3, §4

[2] = system: E. coli ATCC strain 25922; test: Minimal Inhibitory Concentration, microtiter broth dilution
Description: as §1, §2, §3, §4, §5

| Compound | Minimal Inhibitory Concentration P [1] | Minimal Inhibitory Concentration CA (C. albicans) | Minimal Inhibitory Concentration E ([2]; ATCC strain 25922) | Minimal Inhibitory Concentration CA (C. albicans; C. albicans, Table I) | Minimal Inhibitory Concentration E ([2]; E. coli ATCC strain 25922, Table I) |
| --- | --- | --- | --- | --- | --- |
| CCCCCCC(=O)N[C@@H](CC(C)C)C(=O)N[C@@H](CCCCN)C(=O)N[C@@H](CCCCN)C(=O)N[C@@H](CC(C)C)C(=O)N[C@@H](CC(C)C)C(=O)N[C@@H](CCCCN)C(=O)N[C@@H](CCCCN)C(=O)N[C@@H](CC(C)C)C(=O)N[C@@H](CCCCN)C(=O)N[C@@H](CCCCN)C(=O)N[C@@H](CC(C)C)C(N)=O [Hep-(SEQ ID NO: 110)-NH2] (Heptanoyl-LKKLLKKLKKL-NH2) | 4 µg/mL | 32 µg/mL | 16 µg/mL |  |  |
| CCCCCC(=O)N[C@@H](CC(C)C)C(=O)N[C@@H](CCCCN)C(=O)N[C@@H](CCCCN)C(=O)N[C@@H](CC(C)C)C(=O)N[C@@H](CC(C)C)C(=O)N[C@@H](CCCCN)C(=O)N[C@@H](CCCCN)C(=O)N[C@@H](CC(C)C)C(=O)N[C@@H](CCCCN)C(=O)N[C@@H](CCCCN)C(=O)N[C@@H](CC(C)C)C(N)=O [Hex-(SEQ ID NO: 110)-NH2] (Hexanoyl-LKKLLKKLKKL-NH2) | 8 µg/mL | 64 µg/mL | 16 µg/mL |  |  |
| CCCCCC(=O)N[C@H](C(=O)N[C@@H](C)C(=O)NCC(=O)N[C@@H](C)C(=O)N[C@H](C(=O)N[C@@H](C)C(=O)N[C@@H](CCCCN)C(=O)N[C@H](C(=O)N[C@@H](C)C(=O)NCC(=O)N[C@@H](CCCCN)C(=O)N[C@H](C(=O)N[C@@H](C)C(=O)N[C@@H](CCCCN)C(=O)N[C@H](C(=O)N[C@@H](C)C(=O)NCC(=O)N[C@@H](C)C(=O)N[C@H](C(=O)N[C@@H](C)C(N)=O)[C@@H](C)CC)[C@@H](C)CC)[C@@H](C)CC)[C@@H](C)CC)[C@@H](C)CC)[C@@H](C)CC [Hex-(SEQ ID NO: 150)-NH2] (Hexanoyl-IAGAIAKIAGKIAKIAGAIA-NH2) | 128 µg/mL | 128 µg/mL | 32 µg/mL |  |  |
| CC[C@H](C)[C@H](NC(=O)[C@H](CCCCN)NC(=O)CNC(=O)[C@H](C)NC(=O)[C@@H](NC(=O)[C@H](CCCCN)NC(=O)[C@H](C)NC(=O)[C@@H](NC(=O)[C@H](CCCCN)NC(=O)CNC(=O)[C@H](C)NC(=O)[C@@H](NC(=O)[C@H](CCCCN)NC(=O)[C@H](C)NC(=O)[C@@H](NC(=O)[C@H](CCCCN)NC(=O)CNC(=O)[C@H](C)NC(=O)[C@@H](NC(=O)[C@H](CCCCN)NC(=O)C(C)c1ccc(CC(C)C)cc1)[C@@H](C)CC)[C@@H](C)CC)[C@@H](C)CC)[C@@H](C)CC)[C@@H](C)CC)C(=O)N[C@@H](C)C(N)=O (some centres unmarked) [Ibu-(SEQ ID NO: 27)-NH2] (Ibuprofenoyl-KIAGKIAKIAGKIAKIAGKIA-NH2) | 4 µg/mL | 128 µg/mL | 8 µg/mL |  |  |
| CCCCCCCCCCCCCC(=O)N[C@@H](CC(C)C)C(=O)N[C@@H](CCCCN)C(=O)N[C@@H](CCCCN)C(=O)N[C@@H](CC(C)C)C(=O)N[C@@H](CC(C)C)C(=O)N[C@@H](CCCCN)C(=O)N[C@@H](CCCCN)C(=O)N[C@@H](CC(C)C)C(=O)N[C@@H](CCCCN)C(=O)N[C@@H](CCCCN)C(=O)N[C@@H](CC(C)C)C(N)=O [Myr-(SEQ ID NO: 110)-NH2] (Myristoyl-LKKLLKKLKKL-NH2) | 16 µg/mL | >256 µg/mL | 16 µg/mL |  |  |
| CCCCCCCCCCCCCC(=O)N[C@@H](CC(C)C)C(=O)N[C@@H](CCCCN)C(=O)N[C@@H](CCCCN)C(=O)N[C@@H](CC(C)C)C(=O)N[C@@H](CC(C)C)C(=O)N[C@@H](CCCCN)C(=O)N[C@@H](CCC(=O)O)C(=O)N[C@@H](CC(C)C)C(=O)N[C@@H](CC(C)C)C(=O)N[C@@H](CCCCN)C(=O)N[C@@H](CC(C)C)C(N)=O [Myr-(SEQ ID NO: 151)-NH2] (Myristoyl-LKKLLKELLKL-NH2) | 128 µg/mL | >256 µg/mL | 64 µg/mL |  |  |
| CCCCCCCC(=O)N[C@@H](CC(C)C)C(=O)N[C@@H](CCCCN)C(=O)N[C@@H](CCCCN)C(=O)N[C@@H](CC(C)C)C(=O)N[C@@H](CCCCN)C(=O)N[C@@H](CCCCN)C(=O)N[C@@H](CC(C)C)C(N)=O [Oct-(SEQ ID NO: 106)-NH2] (Octanoyl-LKKLKKL-NH2) | 32,64 μg/ml |  | 128 µg/mL | 64,128 μg/ml |  |
| CCCCCCCC(=O)N[C@@H](CC(C)C)C(=O)N[C@@H](CC(C)C)C(=O)N[C@@H](CCCCN)C(=O)N[C@@H](CCCCN)C(=O)N[C@@H](CC(C)C)C(=O)N[C@@H](CCCCN)C(=O)N[C@@H](CCCCN)C(=O)N[C@@H](CC(C)C)C(N)=O [Oct-(SEQ ID NO: 107)-NH2] (Octanoyl-LLKKLKKL-NH2) | 256 µg/mL | 128 µg/mL | >256 µg/mL |  |  |
| CCCCCCCC(=O)N[C@@H](CCCCN)C(=O)N[C@@H](CC(C)C)C(=O)N[C@@H](CC(C)C)C(=O)N[C@@H](CCCCN)C(=O)N[C@@H](CCCCN)C(=O)N[C@@H](CC(C)C)C(=O)N[C@@H](CCCCN)C(=O)N[C@@H](CCCCN)C(=O)N[C@@H](CC(C)C)C(N)=O [Oct-(SEQ ID NO: 108)-NH2] (Octanoyl-KLLKKLKKL-NH2) | 4 µg/mL | 64 µg/mL | 64 µg/mL |  |  |
| CCCCCCCCCCCCC/C=C/[C@@H](O)[C@H](CO)NC(=O)CCC(=O)N[C@@H](CCCCN)C(=O)N[C@H](C(=O)N[C@@H](C)C(=O)NCC(=O)N[C@@H](CCCCN)C(=O)N[C@H](C(=O)N[C@@H](C)C(=O)N[C@@H](CCCCN)C(=O)N[C@H](C(=O)N[C@@H](C)C(=O)NCC(=O)N[C@@H](CCCCN)C(=O)N[C@H](C(=O)N[C@@H](C)C(=O)N[C@@H](CCCCN)C(=O)N[C@H](C(=O)N[C@@H](C)C(=O)NCC(=O)N[C@@H](CCCCN)C(=O)N[C@H](C(=O)N[C@@H](C)C(N)=O)[C@@H](C)CC)[C@@H](C)CC)[C@@H](C)CC)[C@@H](C)CC)[C@@H](C)CC)[C@@H](C)CC [Sph-Suc-(SEQ ID NO: 27)-NH2] ({X2-Suc}-KIAGKIAKIAGKIAKIAGKIA-NH2) | >256 µg/mL |  | 32 µg/mL |  |  |
| Ac-KIAGKIAKIAGKIAKIAGKIA-NH2 [Ac-(SEQ ID NO: 27)-NH2] | 128 µg/mL |  | 8 µg/mL |  |  |
| Ac-LKKLLKKLKKL-NH2 [Ac-(SEQ ID NO: 110)-NH2] | 8,16 μg/ml |  | 32,64 μg/ml |  |  |
| Ac-LLKKLKKLLKKL-NH2 [Ac-(SEQ ID NO: 113)-NH2] | 64 µg/mL |  | 64 µg/mL |  |  |
| H-KIAGKIAKIAGKIAKIAGKIA-OH [(SEQ ID NO: 27)-OH, (Lys Ile Ala Gly Lys Ile Ala)3] | 128 µg/mL |  | 8 µg/mL |  |  |
| H-LKKLLKKLKKL-NH2 [(SEQ ID NO: 110)-NH2] | 32,64 μg/ml |  |  |  | 64,128 μg/ml |
| H-LLKKLKKLLKKL-NH2 [(SEQ ID NO: 113)-NH2] | 8,16 μg/ml |  | 32 µg/mL |  |  |
